Measured values: publication PMC7031696 (Cell chemical biology, 2019)
Entries after “also recorded” stand apart in the source; their conditions may differ. Like-named read-outs stand apart in the source and are kept apart here.

Columns and labels:
[1] = tested on: asynchronous 3D7-A10 parasite cultures; assay: Standard 72-h exposure asexual blood stage susceptibility assay (IC50^72h); type: cell-based, Plasmodium falciparum; details: Plasmodium falciparum, 3D7, 72 h, read-out: Overall (72hr assay) Mean IC50 (IC50^72h)
[2] = tested on: Plasmodium falciparum 3D7-A10 parasites; assay: Stage specificity assay (8-h exposure of synchronized stages, IC50^8h); type: cell-based; details: for IC50: Plasmodium falciparum; for Stage of peak activity (Figure 6): period when the parasite was most susceptible (lowest IC50^8h)
physchem = details: pH 7.4, aqueous buffer, kinetic from dmso stock
[3] = tested on: 3D7-MR4 trophozoite parasite-infected RBCs; details: 10 × IC50^72h; ref Allman et al., 2016; cited from earlier work
[4] = tested on: 3D7-MR4 trophozoite parasite-infected RBCs; assay: Metabolomic profiling (hydrophilic metabolite changes, UHPLC-MS); type: cell-based, Plasmodium falciparum
[5] = 3D7, read-out: Early trophozoites Mean IC50 (IC50^8h), 8-h exposure 16–24 hr, 3D7-A10, survival at 60 h
[6] = 3D7, read-out: Late rings Mean IC50 (IC50^8h), 8-h exposure 8–16 hr, 3D7-A10, survival at 60 h
[7] = 3D7, read-out: Late trophozoites Mean IC50 (IC50^8h), 8-h exposure 24–32 hr, 3D7-A10, survival at 60 h
[8] = 3D7, read-out: Schizonts Mean IC50 (IC50^8h), 8-h exposure 32–40 hr, 3D7-A10, survival at 60 h

C[C@H]1[C@@H](O)O[C@@H]2O[C@@]3(C)CC[C@H]4[C@H](C)CC[C@@H]1[C@@]24OO3 [Dihydroartemisinin, reference compound]
IC50 [1]: 0.001 µM
overall activity profile (stages on which active) ([2]; 8-h exposures): activity on all stages
IC50 ([2]; 3D7, read-out: Early rings Mean IC50 (IC50^8h), 8-h exposure 0–8 hr, 3D7-A10, survival at 60 h): 0.0015 µM
IC50 [2, 5]: 0.0024 µM
IC50 [2, 6]: 0.0024 µM
IC50 [2, 7]: 0.0039 µM
IC50 [2, 8]: 0.0116 µM
Stage of peak activity (Figure 6) [2]: ring and trophozoite stages; also recorded: rings and trophozoites
solubility at 1.5 h (physchem): ≥ 500 µM

CCN(CC)CCn1c(=N)n(CC(O)c2ccc(Cl)c(Cl)c2)c2ccccc21.Cl (stereo not shown) [MMV000248]
peptide levels (hemoglobin catabolism signature) [3]: decreased peptide levels
IC50 [1]: 0.103 µM
Ratio lowest IC50 8hr/IC50 72hr ([2]; 3D7-A10): 3.7
IC50 [2, 5]: 0.411 µM
IC50 [2, 6]: 6.74 µM
IC50 [2, 7]: 0.376 µM
IC50 [2, 8]: 0.754 µM
Stage of peak activity (Figure 6) [2]: trophozoites
Peak Activity (Table S1) ([2]; stage(s) with the lowest IC50^8h): Trophs
Log2(fold changes) 3-phosphoglycerate ([4]; metabolite 3-phosphoglycerate, log2 fold change): 0.5325
Log2(fold changes) 4-Pyridoxic acid ([4]; metabolite 4-Pyridoxic acid, log2 fold change): -0.4298
Log2(fold changes) 4-aminobutyrate ([4]; metabolite 4-aminobutyrate, log2 fold change): 0.1717
Log2(fold changes) 4-phosphopantetheine ([4]; metabolite 4-phosphopantetheine, log2 fold change): 0.0000
Log2(fold changes) 4-phosphopantothenate ([4]; metabolite 4-phosphopantothenate, log2 fold change): -0.4691
Log2(fold changes) 5-aminopentanoic acid ([4]; metabolite 5-aminopentanoic acid, log2 fold change): 0.0000
Log2(fold changes) 5-methyl-THF ([4]; metabolite 5-methyl-THF, log2 fold change): 0.0000
Log2(fold changes) 5-phosphoribosyl-1-pyrophosphate ([4]; metabolite 5-phosphoribosyl-1-pyrophosphate, log2 fold change): -1.6071
Log2(fold changes) 6-phospho-D-gluconate ([4]; metabolite 6-phospho-D-gluconate, log2 fold change): -0.0745
Log2(fold change) HVDD ([4]; metabolite HVDD): 0.0000
Log2(fold change) Hydroxyisocaproic acid ([4]; metabolite Hydroxyisocaproic acid): 0.0000
Log2(fold change) IDP ([4]; metabolite IDP): 0.0000
Log2(fold change) IMP ([4]; metabolite IMP): -0.5306
Log2(fold change) Inositol ([4]; metabolite Inositol): 0.0000
Log2(fold change) Isopentyl-PP ([4]; metabolite Isopentyl-PP): 0.0000
Log2(fold change) L-arginino-succinate ([4]; metabolite L-arginino-succinate): 0.0000
Log2(fold change) LD ([4]; metabolite LD): -0.2580
Log2(fold change) Myristoyl/tetradecanoyl-CoA ([4]; metabolite Myristoyl/tetradecanoyl-CoA): 0.0000
Log2(fold change) N-Acetyl-L-alanine ([4]; metabolite N-Acetyl-L-alanine): -0.7106
Log2(fold change) N-acetyl-L-ornithine ([4]; metabolite N-acetyl-L-ornithine): -2.2540
Log2(fold change) N-acetyl-glucosamine-1/6-phosphate ([4]; metabolite N-acetyl-glucosamine-1/6-phosphate): 0.4803
Log2(fold change) N-acetyl-glutamate ([4]; metabolite N-acetyl-glutamate): 0.5064
Log2(fold change) N-acetyl-glutamine ([4]; metabolite N-acetyl-glutamine): -0.2284
Log2(fold change) N-carbamoyl-L-aspartate ([4]; metabolite N-carbamoyl-L-aspartate): -0.8588
Log2(fold change) NAD+ ([4]; metabolite NAD+): -0.1903
Log2(fold change) NADH ([4]; metabolite NADH): 0.1160
Log2(fold change) NADP+ ([4]; metabolite NADP+): -0.0428
Log2(fold change) NADPH ([4]; metabolite NADPH): 0.7586
Log2(fold change) O-acetyl-L-serine ([4]; metabolite O-acetyl-L-serine): 0.0000
Log2(fold change) Octoluse 8/1P ([4]; metabolite Octoluse 8/1P): 0.0988
Log2(fold change) Octoluse Bisphosphate ([4]; metabolite Octoluse Bisphosphate): -0.4045
Log2(fold change) PD ([4]; metabolite PD): -2.8921
Log2(fold change) PE ([4]; metabolite PE): -2.0895
Log2(fold change) PEE ([4]; metabolite PEE): -1.2134
Log2(fold change) PEEK ([4]; metabolite PEEK): -1.2498
Log2(fold change) PVNF ([4]; metabolite PVNF): -4.7386
Log2(fold change) Pyroglutamic acid ([4]; metabolite Pyroglutamic acid): -0.2793
Log2(fold change) Pyrophosphate ([4]; metabolite Pyrophosphate): -1.6691
Log2(fold change) Ribose-5-phosphate ([4]; metabolite Ribose-5-phosphate): 0.0000
Log2(fold change) S-adenosyl-L-homocysteine ([4]; metabolite S-adenosyl-L-homocysteine): -0.0077
Log2(fold change) S-adenosyl-L-methioninamine ([4]; metabolite S-adenosyl-L-methioninamine): 0.0000
Log2(fold change) S-adenosyl-L-methionine ([4]; metabolite S-adenosyl-L-methionine): 0.0000
Log2(fold change) S-methyl-5'-thioadenosine ([4]; metabolite S-methyl-5'-thioadenosine): 0.7911
Log2(fold change) SD ([4]; metabolite SD): -1.1732
Log2(fold change) SDL ([4]; metabolite SDL): 0.0000
Log2(fold change) SID ([4]; metabolite SID): 0.0000
Log2(fold change) Sedoheptulose bisphosphate ([4]; metabolite Sedoheptulose bisphosphate): -0.2688
Log2(fold change) Thiamine pyrophosphate ([4]; metabolite Thiamine pyrophosphate): 0.0000
Log2(fold changes) UDP-D-glucose ([4]; metabolite UDP-D-glucose, log2 fold change): -0.0583
Log2(fold changes) UDP-D-glucuronate ([4]; metabolite UDP-D-glucuronate, log2 fold change): -0.2918
Log2(fold changes) UDP-N-acetyl-glucosamine ([4]; metabolite UDP-N-acetyl-glucosamine, log2 fold change): -0.1616
Log2(fold changes) UDP ([4]; metabolite UDP, log2 fold change): -0.0490
Log2(fold changes) UMP ([4]; metabolite UMP, log2 fold change): -0.4851
Log2(fold changes) UTP ([4]; metabolite UTP, log2 fold change): -1.1444
Log2(fold change) hydroxyphenylpyruvate ([4]; metabolite hydroxyphenylpyruvate): 0.0000
Log2(fold change) hydroxyproline/Aminolevulinate ([4]; metabolite hydroxyproline/Aminolevulinate): 0.0000
Log2(fold change) hypoxanthine ([4]; metabolite hypoxanthine): -0.4020
Log2(fold change) indole ([4]; metabolite indole): -0.6106
Log2(fold change) inosine ([4]; metabolite inosine): -0.0831
Log2(fold change) isoleucine ([4]; metabolite isoleucine): 0.0000
Log2(fold change) lactate ([4]; metabolite lactate): -0.0810
Log2(fold change) leucine ([4]; metabolite leucine): 0.0000
Log2(fold change) lysine ([4]; metabolite lysine): 0.0000
Log2(fold change) malate ([4]; metabolite malate): -0.9119
Log2(fold change) maleic acid ([4]; metabolite maleic acid): 0.0000
Log2(fold change) methionine ([4]; metabolite methionine): 0.0000
Log2(fold change) myo-inositol ([4]; metabolite myo-inositol): 0.1446
Log2(fold change) nicotinamide mononucleotide ([4]; metabolite nicotinamide mononucleotide): 0.0000
Log2(fold change) nicotinate ([4]; metabolite nicotinate): 0.0498
Log2(fold change) ornithine ([4]; metabolite ornithine): 0.1803
Log2(fold change) orotate ([4]; metabolite orotate): -0.8832
Log2(fold change) orotidine-5'-phosphate ([4]; metabolite orotidine-5'-phosphate): 0.0000
Log2(fold change) oxaloacetate ([4]; metabolite oxaloacetate): 0.0000
Log2(fold change) p-aminobenzoate ([4]; metabolite p-aminobenzoate): 0.0000
Log2(fold change) p-hydroxybenzoate ([4]; metabolite p-hydroxybenzoate): 0.2564
Log2(fold change) pantothenate ([4]; metabolite pantothenate): 0.0000
Log2(fold change) phenylalanine ([4]; metabolite phenylalanine): 0.0000
Log2(fold change) phenylpyruvate ([4]; metabolite phenylpyruvate): -0.8371
Log2(fold change) phosphoenolpyruvate ([4]; metabolite phosphoenolpyruvate): 0.4091
Log2(fold change) prephenate ([4]; metabolite prephenate): 0.0000
Log2(fold change) proline ([4]; metabolite proline): 0.0000
Log2(fold change) pyridoxine ([4]; metabolite pyridoxine): 0.0000
Log2(fold change) pyruvate ([4]; metabolite pyruvate): -0.4292
Log2(fold change) riboflavin ([4]; metabolite riboflavin): 0.0000
Log2(fold change) ribose ([4]; metabolite ribose): 0.0000
Log2(fold change) ribose-phosphate ([4]; metabolite ribose-phosphate): -0.0154
Log2(fold change) ribulose-5-phosphate ([4]; metabolite ribulose-5-phosphate): 0.0000
Log2(fold change) serine ([4]; metabolite serine): 0.0000
Log2(fold change) sn-glycerol-3-phosphate ([4]; metabolite sn-glycerol-3-phosphate): 0.2907
Log2(fold change) succinate/Methylmalonic acid ([4]; metabolite succinate/Methylmalonic acid): -0.5437
Log2(fold change) succinyl-CoA/methylmalonyl-CoA ([4]; metabolite succinyl-CoA/methylmalonyl-CoA): 0.0000
Log2(fold change) taurine ([4]; metabolite taurine): 0.0000
Log2(fold change) thiamine ([4]; metabolite thiamine): 0.0000
Log2(fold change) threonine/homoserine ([4]; metabolite threonine/homoserine): 0.0000
Log2(fold change) thymidine ([4]; metabolite thymidine): -0.8046
Log2(fold changes) thymine ([4]; metabolite thymine, log2 fold change): -0.3850
Log2(fold changes) trehalose-6-Phosphate ([4]; metabolite trehalose-6-Phosphate, log2 fold change): 0.0000
Log2(fold changes) tryptophan ([4]; metabolite tryptophan, log2 fold change): 0.0000
Log2(fold changes) tyrosine ([4]; metabolite tyrosine, log2 fold change): 0.0000
Log2(fold changes) uridine ([4]; metabolite uridine, log2 fold change): -0.9561
